Measured values from US6624141B1, “Protamine fragment compositions and methods of use” (The Regents of The University of Michigan, priority 1999, dated 2003).
Read-outs that look alike come from different tables or passages of the source.

Columns and labels:
[1] = Blood glucose control in streptozotocin-diabetic rats; assay type: in vivo; details: data from 6 rats
Method: Induction of diabetes in rats was carried out by the injection of streptozotocin at a dose of 45 mg/kg body weight. Diabetes was confirmed 24 h after injection by measuring the tail blood glucose with a Lifescan Glucometer (One Touch II).

aPTT activity of heparin = assay: Heparin neutralization by aPTT clotting assay; assay type: biochemical, human; details: heparin 1 mg
Method: For the aPTT clotting assay, 15 μl of heparin solution (20 μg/ml) was mixed with 15 μl of solution containing various concentrations of protamine (0-60 μg/ml) or LMWP species (0-100 μg/ml). To the mixture, 100 μl of actin cephaloplastin and 100 μl of plasma were added. After 3 min of incubation, 100 μl of 0.02 M calcium chloride (preheated to 37° C.) was added and the clotting time was immediately measured using a fibrometer (Fibrosystem, Becton Dickinson Company, Cockeysville, Md.).

[2] = tested on: anti-Xa activity of heparin; assay: Heparin neutralization by anti-factor Xa chromogenic assay; assay type: biochemical, human; details: heparin 40 μg; half-points of ΔAbs in FIG. 5
Method: (§1) Heparin neutralization by protamine and LMWP was also measured in plasma by anti-factor Xa chromogenic assay and activated partial thromboplastin time (aPTT) clotting assay (Yang et al., 1986). In brief, for the anti-factor Xa assay, a series of plasma samples containing 0.4 mg of heparin, 15 IU of ATIII, and various amounts of protamine (0-0.8 mg) or LMWP (0-0.4 mg) were prepared. One hundred microliters of the plasma sample were then mixed with 800 μl of Tris-HCl buffer (pH 7.4), followed by the addition of 100 μl of Factor Xa (7.1 nkat/ml). After a 3 min incubation at 37° C., 200 μl of […] substrate (0.5 mg/ml) were added. The reaction mixture was incubated for 5 min at 37° C. and then quenched by the addition of 200 μl of 20% acetic acid. The absorbance in the solution was measured at 405 nm, and the degree of heparin neutralization is proportional to this measured absorbance.

[3] = tested on: anti-Xa activity of CY216 (LMWH); assay: Neutralization of LMWH (CY216) by anti-Xa chromogenic substrate assay; assay type: biochemical; details: dose of 30 μg
Method: as §1
Neutralization of the anticoagulant functions of both heparin and LMWH by protamine and LMWP is studied in human plasma using the aPTT clotting assay and the chromagenic anti-Xa and anti-IIa assays (Yang et al., 1986). The aPTT values of the test samples, are measured using a fibrometer (Fibrosystem; Becton-Dickinson, Cockeysville, Md.), and the anti-Xa and anti-IIa activities are measured using the chromagenic substrates S-2222 and S-2238, respectively. […]

[4] = Immunogenicity in mice, IgG antibody production by ELISA; assay type: in vivo; details: immunized with 50 μg in CFA plus boosters; ELISA on wells coated with the same species
Method: The immunogenicity of protamine and LMWP was examined in mice. The production of polyclonal antibodies was performed as described (Cooper and Paterson, 1991). Fifteen thin-skinned albino mice, ten for protamine and five for LMWP were included. Each mouse was immunized with 50 μg of either protamine or LMWP in the complete Freund's adjuvant (CFA). Four weeks later, animals were bled and first booster was given with 5 μg of protamine (or LMWP) in incomplete Freund's adjuvant (IFA). Second and third boosters were given at two-week intervals. Afterwards, blood was collected, allowed to clot, and centrifuged to collect serum. All sera were tested for IgG antibodies using a modified ELISA method (Singh et al., 1982). Protamine or LMWP was used to coat the wells of the microplate in order to capture their related antibodies. The detection antibody was goat-antimouse-IgG-alkaline phosphatase that was reacted with p-nitrophenylphosphate to produce the absorbance readings at 405 nm. The antigenicity of LMWP was examined by following the same ELISA method described above but by utilizing a LMWP-coated microplate for antibody detection in the protamine-immunized mice.

[5] = Binding constant to heparin determined with the heparin sensor
From the text: (§2) With the assistance of the heparin sensor and the methodology described previously (Yun et al., 1993), the inventors were able to determine the binding constant of heparin and LMWH to ATIII, protamine, and LMWP.

[6] = Binding constant to LMWH determined with the heparin sensor
From the text: as §2

[7] = cited from earlier work
[8] = cited from earlier work; remark: listed apart in the source

Row | Binding Constant to Heparin [5] [µM⁻¹] | Binding Constant to Heparin ([5]; listed as protamine) [µM⁻¹] | Binding Constant to LMWH [6] [µM⁻¹] | Binding Constant to LMWH ([6]; listed as protamine) [µM⁻¹] | Substance | overall time span to preserve a low glucose level [1] [min] | time required to reach the minimum glucose level [1] [min] | amount required to completely neutralize the aPTT activity of heparin (aPTT activity of heparin) [mg] | dose required for 50% heparin neutralization [2] [nmol] | neutralization of the anti-Xa activity of CY216 [3] [%] | mice with positive reaction for antibodies [4] | units of heparin neutralized by each milligram ([7]; heparin derived from bovine lung tissue) | units of heparin neutralized by each milligram ([7]; heparin derived from porcine intestinal mucosa) [units] | pKa [8]
1 | – | – | – | – | insulin | 360 ± 50 | 100 ± 20 | – | – | – | – | – | – | –
2 | 89.0 ± 2.0 | 89 | 1.1 ± 0.3 | 1.1 | Protamine | – | – | ~1.7 | 7 | 60 | 4 out of 10 and four out of ten | approximately 90 units | ~115 | about 10
